Results published in patent US8389523B2, “Substituted quinoxaline and an agrochemical composition thereof” (Kumiai Chemical Industry Co., Ltd., priority 2007, dated 2013).

How the values were obtained:
Format in all cases: in vivo
Parameters in all cases: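 grade 0 to 5 of growth suppression where 5 is 90% or more and 0 below 10%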
[1] = tested on: Abutilon theophrasti medicus; assay: Herbicidal effects in upland field foliar treatment (Test Example 3); settings: criteria of Table 138; for herbicidal effect (index) on Abutilon theophrasti medicus: 1000 g active ingredient per hectare, 14th day after treatment
Procedure: (§1) Test Example 3 Test on Herbicidal Effects in Upland Field Foliar Treatment A 80-cm^2 plastic pot was filled with upland field soil. Seeds of Echinochloa crus-galli (L.) P. Beauv. var. crus-galli, Abutilon theophrasti medicus and Amaranthus viridis L. were sowed, and the plants were grown for two weeks in a greenhouse. A wettable powder formulation prepared according to Preparation Example 1 was diluted with water, and was sprayed with a small sprayer to perform foliar application over the entirety of plants from the upper side, in an amount equivalent to 1000 liters per hectare, such that 1000 g of the active ingredient per hectare was applied. Thereafter, the plants were grown in a greenhouse, and on the 14th day after the treatment, the herbicidal effects were investigated according to the criteria described in the Table 138 shown above.

Amaranthus viridis L. [2] = assay: as above; settings: criteria of Table 138; for herbicidal effect (index) on Amaranthus viridis L.: 1000 g active ingredient per hectare, 14th day after treatment
Procedure: as §1

[3] = tested on: Echinochloa crus-galli (L.) P. Beauv. var. crus-galli; assay: as above; settings: criteria of Table 138; for herbicidal effect (index) on Echinochloa crus-galli (L.) P. Beauv. var. crus-galli: 1000 g active ingredient per hectare, 14th day after treatment
Procedure: as §1

[4] = tested on: Abutilon theophrasti medicus; assay: Herbicidal effects in upland field soil treatment (Test Example 2); settings: 1000 g active ingredient per hectare, 21st day after treatment, criteria of Table 138
In short: (§2)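 Pre-emergence test: seeds sown in upland soil, then soil surface sprayed with diluted wettable powder at 1000 g active ingredient per hectare (1000 liters per hectare). Greenhouse growth; herbicidal effect scored on day 21 against set criteria.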

Amaranthus viridis L. [5] = assay: as above; settings: 1000 g active ingredient per hectare, 21st day after treatment, criteria of Table 138
In short: as §2

[6] = tested on: Scirpus juncoides Roxb. var. ohwianus. T. Koyama; assay: Herbicidal effects in paddy field soil treatment (Test Example 1); settings: paddy field soil treatment; 1000 g of the active ingredient per hectare; wettable powder added dropwise on water surface; 21st day after treatment
In short: (§3)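 Seeds sown in puddled paddy soil, waterlogged to 3 cm depth; next day a diluted wettable powder applied dropwise to the water surface at 1000 g active ingredient per hectare. Herbicidal effect scored 21 days after treatment in a greenhouse.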

[7] = tested on: Monochoria vaginalis (Burm. f.) Presl var. plantaginea (Roxb.) Solms-Laub.; assay: as above; settings: paddy field soil treatment; 1000 g of the active ingredient per hectare; wettable powder added dropwise on water surface; 21st day after treatment
In short: as §3

[8] = tested on: Echinochloa oryzicola Vasing; assay: as above; settings: paddy field soil treatment; 1000 g of the active ingredient per hectare; wettable powder added dropwise on water surface; 21st day after treatment
In short: as §3

[9] = 1000 g of the active ingredient per hectare, 14th day after the treatment, wettable powder

Compound	herbicidal effect (index) on Abutilon theophrasti medicus [1]	herbicidal effect (index) on Amaranthus viridis L. (Amaranthus viridis L. [2])	herbicidal effect (index) on Echinochloa crus-galli (L.) P. Beauv. var. crus-galli [3]	herbicidal effect (index) on Abutilon theophrasti medicus [4]	herbicidal effect (index) on Amaranthus viridis L. (Amaranthus viridis L. [5])	Herbicidal effects index, Scirpus juncoides Roxb. var. ohwianus. T. Koyama [6]	Herbicidal effects index, Monochoria vaginalis (Burm. f.) Presl var. plantaginea (Roxb.) Solms-Laub. [7]	Herbicidal effects index, Echinochloa oryzicola Vasing [8]	herbicidal effects on Abutilon theophrasti medicus [1, 9]	herbicidal effects on Amaranthus viridis L. (Amaranthus viridis L. [2]; [9])	herbicidal effects on Echinochloa crus-galli (L.) P. Beauv. var. crus-galli [3, 9]
CCn1c(=O)c(C(=O)C2=C(O)CCCC2=O)nc2ccccc21 [Compound I-7]	5	5	4	5	5	5	5	5			
CCCn1c(=O)c(C(=O)C2=C(O)CCCC2=O)nc2ccccc21 [Compound I-12]	5	5	4	5	5	5	5	5			
CC(C)n1c(=O)c(C(=O)C2=C(O)CCCC2=O)nc2ccccc21 [Compound I-13]	5	5	5	5	5	5	5	5			
O=C1CCCC(O)=C1C(=O)c1nc2ccccc2n(C2CC2)c1=O [Compound I-14]	5	5	4	5	5	5	5	4			
CCCCn1c(=O)c(C(=O)C2=C(O)CCCC2=O)nc2ccccc21 [Compound I-15]	5	5	5	5	5	5	5	5			
C=CCn1c(=O)c(C(=O)C2=C(O)CCCC2=O)nc2ccccc21 [Compound I-30]	5	5	4	5	5	5	5	5			
CCSCn1c(=O)c(C(=O)C2=C(O)CCCC2=O)nc2ccccc21 [Compound I-72]	5	5	5	5	5	5	5	5			
COc1cc(-n2c(=O)c(C(=O)C3=C(O)CCCC3=O)nc3c(F)cccc32)cc(OC)c1OC [II-234]				5	5				5	5	4
